Experimental data published in patent US20230131966A1, “FUNGICIDAL AMIDES” (FMC Corporation, priority 2020, published 2023).

What was measured:
Format in all cases: in vivo
[1] = test system: Erysiphe graminis f. sp. tritici; experiment: Test G: wheat powdery mildew control on wheat seedlings; details: for Test G disease control rating / pest or weed control at 250 ppm: 100 = 100% disease control, 0 = no control; for pest or weed control at 250 ppm: Blumeria graminis, read-out: Test G disease control rating
Phytophthora infestans = experiment: whole plant or invertebrate; details: tomato seedlings; for Test F disease control rating / pest or weed control at 250 ppm: 100 = 100% disease control, 0 = no control; for pest or weed control at 250 ppm: Phytophthora infestans, in Solanum lycopersicum, read-out: Test F disease control rating, 250 ppm
Zymoseptoria tritici = experiment: Test C: wheat leaf blotch control on wheat seedlings; details: for Test C disease control rating / pest or weed control at 250 ppm: wheat seedlings, 100 = 100% disease control, 0 = no control; for pest or weed control at 250 ppm: Zymoseptoria tritici, read-out: Test C disease control rating
Botrytis cinerea = experiment: Test E: tomato Botrytis control on tomato seedlings; details: for Test E disease control rating / pest or weed control at 250 ppm: 100 = 100% disease control, 0 = no control; for pest or weed control at 250 ppm: Botrytis cinerea, read-out: Test E disease control rating
Plasmopara viticola = experiment: Test D: grape downy mildew control on grape seedlings; details: for Test D disease control rating / pest or weed control at 250 ppm: 100 = 100% disease control, 0 = no control; for pest or weed control at 250 ppm: Plasmopara viticola, read-out: Test D disease control rating
Phakopsora pachyrhizi = experiment: Test A: Asian soybean rust control on soybean seedlings; details: for Test A disease control rating / pest or weed control at 250 ppm: soybean seedlings, 100 = 100% disease control, 0 = no control; for pest or weed control at 250 ppm: Phakopsora pachyrhizi, read-out: Test A disease control rating
[2] = test system: Puccinia recondita f. sp. tritici; experiment: Test B: wheat leaf rust control on wheat seedlings; details: for Test B disease control rating / pest or weed control at 250 ppm: wheat seedlings, 100 = 100% disease control, 0 = no control; for pest or weed control at 250 ppm: Puccinia recondita, read-out: Test B disease control rating
[3] = rate 250 ppm, relative to the controls

| Structure (SMILES) | Test G disease control rating ([1]; 250 ppm) | Test F disease control rating (Phytophthora infestans; 250 ppm) | Test C disease control rating (Zymoseptoria tritici; 250 ppm) | Test E disease control rating (Botrytis cinerea; 250 ppm) | Test D disease control rating (Plasmopara viticola; 250 ppm) | Test A disease control rating (Phakopsora pachyrhizi; 250 ppm) | Test B disease control rating ([2]; 250 ppm) | other results |
| --- | --- | --- | --- | --- | --- | --- | --- | --- |
| CCC(OC(=O)[C@H](C)NC(=O)c1nccc(OC)c1OCOC(C)=O)c1ccc(C2CCCCC2)cc1 (single isomer, unassigned) [Compound 135] | 86% | 0% | 81% | 0% | 29% | 100% | 98% |  |
| COc1ccnc(C(=O)NC(C)C(=O)OC(C)c2ccccc2Oc2ccc(F)cc2)c1OC(C)=O (mixture of isomers) [Compound 61] | 0% | 0% | 0% | 0% | 15% | 0% | 55% |  |
| COc1ccnc(C(=O)N[C@@H](C)C(=O)OC(C)c2ccccc2Oc2ccc(F)cc2)c1OC(C)=O (single isomer, unassigned) [Compound 57] | 0% | 0% | 88% | 0% | 16% | 99% | 98% |  |
| COc1ccnc(C(=O)NC(C)C(=O)OC(C(C)C)C2CCCCC2)c1O (mixture of isomers) [Compound 63] | 0% | 0% | 79% | 16% | 81% | 100% | 99% |  |
| CCC(OC(=O)[C@H](C)NC(=O)c1nccc(OC)c1OCOC(C)=O)C1CCCCC1 (single isomer, unassigned) [Compound 189] |  |  |  |  |  |  |  | Test G disease control rating (100 = 100% disease control, 0 = no disease control) [1, 3]: 26%; Test F disease control rating (100 = 100% disease control, 0 = no disease control) (Phytophthora infestans; [3]): 0%; Test C disease control rating (100 = 100% disease control, 0 = no disease control) (Zymoseptoria tritici; [3]): 98%; Test E disease control rating (100 = 100% disease control, 0 = no disease control) (Botrytis cinerea; [3]): 0%; Test D disease control rating (100 = 100% disease control, 0 = no disease control) (Plasmopara viticola; [3]): 46%; Test A disease control rating (100 = 100% disease control, 0 = no disease control) (Phakopsora pachyrhizi; [3]): 100%; Test B disease control rating (100 = 100% disease control, 0 = no disease control) [2, 3]: 100% |
| COc1ccnc(C(=O)NC(C)C(=O)OC(C)c2cccc(C3CC3)c2)c1O (mixture of isomers) [Compound 158] | 0% | 0% | 73% | 0% | 94% | 100% | 100% |  |
| COc1ccnc(C(=O)N[C@@H](C)C(=O)OC(C)c2ccc(C3CCCCC3)cc2)c1OCOC(C)=O (single isomer, unassigned) [Compound 147] | 94% | 71% | 95% | 0% | 38% | 100% | 99% |  |
| COc1ccnc(C(=O)NC(C)C(=O)OC(C)c2ccccc2C(F)(F)F)c1OC(C)=O (mixture of isomers) [Compound 18] | 0% | 0% | 93% | 0% | 35% | 62% | 68% |  |
| CCC(OC(=O)[C@H](C)NC(=O)c1nccc(OC)c1OCOC(C)=O)c1ccc(C2CCCCC2)cc1 (single isomer, unassigned) [Compound 134] | 0% | 0% | 64% | 0% | 33% | 97% | 74% |  |
| COc1ccnc(C(=O)NC(C)C(=O)OC(C)c2ccccc2-n2ccc(C(F)(F)F)n2)c1O (mixture of isomers) [Compound 26] | 0% | 0% | 47% | 0% | 43% | 73% | 0% |  |
| COc1ccnc(C(=O)NC(C)C(=O)OC(C)c2ccc(C3CCCCC3)cc2)c1OC(=O)C(C)C (mixture of isomers) [Compound 154] | 0% | 0% | 85% | 0% | 48% | 100% | 98% |  |
| COc1ccnc(C(=O)NC(C)C(=O)OC(C)C2CCC(c3ccccc3)CC2)c1O (mixture of isomers) [Compound 103] | 0% | 0% | 99% | 0% | 74% | 100% | 100% |  |
| COc1ccnc(C(=O)N[C@@H](C)C(=O)OC(C)c2cccc(-c3ccccc3)c2)c1O (single isomer, unassigned) [Compound 3] | 0% | 0% | 83% | 16% | 32% | 100% | 99% |  |
| COc1ccnc(C(=O)NC(C)C(=O)OC(C)C2CCc3ccccc3O2)c1O (mixture of isomers) [Compound 164] | 0% | 0% | 99% | 0% | 0% | 100% | 99% |  |
| COc1ccnc(C(=O)NC(C)C(=O)OC(C)c2ccc(C3CCCC3)cc2)c1OC(C)=O (mixture of isomers) [Compound 64] |  |  |  |  |  |  |  | Test G disease control rating ([1]; 50 ppm): 0%; Test F disease control rating (Phytophthora infestans; 50 ppm): 0%; Test C disease control rating (Zymoseptoria tritici; 50 ppm): 13%; Test E disease control rating (Botrytis cinerea; 50 ppm): 0%; Test D disease control rating (Plasmopara viticola; 50 ppm): 86%; Test A disease control rating (Phakopsora pachyrhizi; 50 ppm): 100%; Test B disease control rating ([2]; 50 ppm): 99% |
| COc1ccnc(C(=O)N[C@@H](C)C(=O)OC(C)c2ccc(C3CCCCC3)cc2)c1OC(C)=O (mixture of isomers) [Compound 31, N-[[3-(acetyloxy)-4-methoxy-2-pyridinyl]carbonyl]-L-alanine 1-(4-cyclohexylphenyl)ethyl ester] |  |  |  |  |  |  |  | pest or weed control at 250 ppm ([1]; 250 ppm): 73%; pest or weed control at 250 ppm (Phytophthora infestans): 0%; pest or weed control at 250 ppm (Zymoseptoria tritici; 250 ppm): 87%; pest or weed control at 250 ppm (Botrytis cinerea; 250 ppm): 0%; pest or weed control at 250 ppm (Plasmopara viticola; 250 ppm): 1%; pest or weed control at 250 ppm (Phakopsora pachyrhizi; 250 ppm): 100%; pest or weed control at 250 ppm ([2]; 250 ppm): 100% |
| COc1cccc(C(=O)N[C@@H](C)C(=O)OC(C)c2ccccc2Cc2ccccc2)c1OC(C)=O (single isomer, unassigned) [Compound 7] | 0% | 0% | 0% | 0% | 35% | 0% | 0% |  |
| COc1ccnc(C(=O)NC(C)C(=O)OC(C)c2cccc(-n3ccc(C(F)(F)F)n3)c2)c1O (mixture of isomers) [Compound 28] | 0% | 0% | 90% | 0% | 40% | 99% | 74% |  |
| COc1ccnc(C(=O)N[C@@H](C)C(=O)OC(C)C2CCCc3ccccc32)c1O (single isomer, unassigned) [Compound 183] | 0% | 0% | 98% | 0% | 44% | 100% | 99% |  |
| CC(NC(=O)c1cccc(N)c1O)C(=O)OC(C)c1ccccc1Cc1ccccc1 (racemic) [Compound 9] |  |  |  |  |  |  |  | pest or weed control at 250 ppm ([1]; 250 ppm): 0%; pest or weed control at 250 ppm (Phytophthora infestans): 76%; pest or weed control at 250 ppm (Zymoseptoria tritici; 250 ppm): 53%; pest or weed control at 250 ppm (Botrytis cinerea; 250 ppm): 0%; pest or weed control at 250 ppm (Plasmopara viticola; 250 ppm): 97%; pest or weed control at 250 ppm (Phakopsora pachyrhizi; 250 ppm): 95%; pest or weed control at 250 ppm ([2]; 250 ppm): 91% |
| COc1ccnc(C(=O)N[C@@H](C)C(=O)OC(C)c2ccc(F)cc2Cc2ccc(F)cc2)c1OC(C)=O (single isomer, unassigned) [Compound 58] | 0% | 0% | 86% | 0% | 27% | 98% | 99% |  |
